A short description of this assay: In vitro inhibitory activity towards Coagulation factor X was determined using chromogenic substrate, MeO-COD-CHG-Gly-Arg-pNA.
For orientation: Ki means the equilibrium dissociation constant of an inhibitor or competing ligand from its target. The molecule `N=C(N)c1ccc(N)cc1` gave a Ki of 197 µM.

Molecule `N=C(N)c1ccc(CO)cc1` registered an inhibition constant Ki of 55 µM.

As for `N=C(N)c1ccc(CCO)cc1`, the Ki was found to be 607 µM. To `N=C(N)c1ccc(CCN)cc1` belongs 750 µM; to `CS(=O)(=O)c1ccc(C(=N)N)cc1`, 1800 µM. Then `CP(=O)(O)c1ccc2c(N)nccc2c1`, with more than 5000 µM; and `N=C(N)c1ccc(CN)cc1`, with 429 µM; and `CN(C)c1ccc(P(C)(=O)O)cc1`, with 4100 µM. To `N=C(N)c1ccc(O)cc1` belongs 30 µM; to `CS(=O)(=O)CCc1ccc(C(=N)N)cc1`, 193 µM; to `CS(=O)(=O)Cc1ccc(C(=N)N)cc1`, more than 5000 µM. Regarding `N=C(N)c1ccccc1` [BENZAMIDINE], the Ki was found to be 349 µM.

For the origin of these results see ChEMBL document CHEMBL1137904, “Design, synthesis, and evaluation of oxyanion-hole selective inhibitor substituents for the S1 subsite of factor Xa” (Bioorg Med Chem Lett, 2004).
